Columns and labels:
Format in all cases: cell-based
H3K27ac at UHRF1 TSS = assay: ChIP-qPCR of H3K27ac occupancy at UHRF1 gene; conditions: H929 and MM1.S cells, 1 μM POM, 24 hr
Procedure: FIG. 2A-2E. UHRF1 expression is positively regulated by Ikaros and Aiolos in IMiDs sensitive MM cells. (2A) Western blot analysis protein expression of UHRF1, Ikaros, Aiolos, ZFP91 and Cereblon expression in control [shLuciferase (shLuc)] and cereblon knockdown (shCRBN) H929 cells treated with DMSO and 1 μM POM for 3 days. GAPDH, loading control. Arrow head, UHRF1. (2B) qRT-PCR analysis of UHRF1 gene expression levels in cells as in (2A). Data was normalized to ACTB. Error bars represent the SEM of technical duplicates. *** P<0.001 (Two-tailed unpaired Student's t-test). […]
ChIP-qPCR was performed using ChIP-IT Express Enzymatic kit (Active Motif) according to the manufacture manual with some modifications. […] DNA was purified using a PCR purification kit (Qiagen) and analyzed by qPCR using the Power SYBR Green PCR Master Mix.
Procedures afterward were performed according to the manufacture manual. Eluted DNA was purified using a PCR purification kit (Qiagen) and analyzed by quantitative real-time PCR on the Viia 7 Real Time PCR System using the Power SYBR Green PCR master mix (Applied Biosystems). Statistical differences were calculated using a […] unpaired Student's t-test.

UHRF1 = assay: Western blot of UHRF1 protein in MM cells
Procedure: (§1) FIG. 1A-1F. Down regulation of UHRF1 transcription by IMiDs correlates with drug sensitivity of multiple myeloma. (1A) Volcano plot of protein expression changes determined by mass spectrometry in H929 cells at 24 hr of treatment with CC-220 (0.1 μM) or DMSO control. X axis, Log2fold change (FC); Y axis, significance,-log 10 [p-value]. […] (1B) Volcano plot of gene expression changes determined by Affymetrix microarray in H929 cells treated with POM (1 μM) or DMSO for 24 hr. X axis, Log2fold change (FC); Y axis, significance,-log 10 [p-value], n=2 technical replicates). […] (1C) Western blot analysis protein expression of UHRF1, Ikaros, Aiolos and ZFP91 in H929 cells treated with 1 μM POM for indicated time. (1D) qRT-PCR analysis of UHRF1 gene expression levels in cells as in (1C). Error bars represent the SEM from duplicate measurements. (1E) Western blot analysis protein expression of UHRF1 and indicated proteins in MM cells treated with DMSO (−) or 1 μM POM (+) for 3 days. GAPDH serves as a loading control. (1F) Thymidine incorporation of various MM cell lines treated with indicated dose of POM for 3 days. Error bars represent the SEM from technical replicates.
(§2) FIG. 2A-2E. UHRF1 expression is positively regulated by Ikaros and Aiolos in IMiDs sensitive MM cells. (2A) Western blot analysis protein expression of UHRF1, Ikaros, Aiolos, ZFP91 and Cereblon expression in control [shLuciferase (shLuc)] and cereblon knockdown (shCRBN) H929 cells treated with DMSO and 1 μM POM for 3 days. GAPDH, loading control. Arrow head, UHRF1. (2B) qRT-PCR analysis of UHRF1 gene expression levels in cells as in (2A). Data was normalized to ACTB. Error bars represent the SEM of technical duplicates. *** P<0.001 (Two-tailed unpaired Student's t-test). (2C) Western blot analysis protein expression of UHRF1, Ikaros and Aiolos in stably transduced H929 cells after Dox induction (0, 10, 50 or 100 ng/ml) for 3 days of non-target shRNA (shNT) or shRNAs targeting Ikaros (shIKZF1) or Aiolos (shIKZF3). (2D) qRT-PCR analysis of UHRF1 gene expression levels in cells as in (2C). Shown are cells induced with Dox (50 ng/ml) for 3 days. Data was normalized to GAPDH. Error bars represent the SEM of technical duplicates. *P<0.05, ** P<0.01, *** P<0.001, **** P<0.0001 (Two-tailed unpaired Student's t-test). (2E) ChIP-qPCR analysis of the occupancy Aiolos (upper panel) or H3K27ac (lower panel) occupancy at transcription star site (TSS), gene body (+7 kb) and gene end (GE) of UHRF1 gene in H929, MM1.S or RPMI 8226 cells treated with DMSO or 1 μM POM for 24 hr. ChIP with control rabbit IgG (IgG) serves as a negative control. Error bars represent the SEM of technical triplicates. * P<0.05, ** P<0.01, **** P<0.0001 (Two-tailed unpaired Student's t-test).
FIG. 6A-6D. […]

UHRF1 mRNA = assay: qRT-PCR of UHRF1 gene expression in MM cells
Procedure: as §1, §2
FIG. 6A-6D. […] (6A) Immunocytochemistry assay of UHRF1 in H929 cells treated with DMSO or 1 μM POM for 48 hrs. (6B) qRT-PCR analysis of UHRF1 gene expression levels in indicated MM cells treated with indicated doses of POM for 3 days. Data was normalized to ACTB. Error bars represent the SEM from duplicate measurements. * P<0.05, ** P<0.01, *** P<0.001, **** P<0.0001 (Two-tailed Student's t-test). […]
Total RNA was extracted by RNeasy Mini Kit (Qiagen) and reverse transcribed by iScrip cDNA Synthesis Kit (Bio-rad). Quantitative real-time PCR (qPCR) was conducted on a VillA 7 System using the Power SYBR Green PCR Master Mix (Applied Biosystems). Gene expression values were calculated by normalization to Actb using the comparative CT method.

[1] = H929 cells, POM 1 μM, time course
[2] = shCRBN vs shLuc H929 cells, 1 μM POM, 3 days

How did the “H3K27ac level at the UHRF1 TSS” value (H3K27ac at UHRF1 TSS) turn out when `Nc1cccc2c1C(=O)N(C1CCC(=O)NC1=O)C2=O` (stereo not drawn) [POM, pomalidomide] was run?
Its value is “drastically reduced”.

And the “time to profound reduction of UHRF1 protein level” value (UHRF1; [1])?
Its value is no more than 48 h.

And the UHRF1 protein levels (UHRF1; MC/CAR and RPMI 8226 cells, 1 μM POM, 3 days)?
The UHRF1 protein levels was “without affecting”.

What about the UHRF1 expression level (UHRF1; sensitive cell lines H929, MM1.S, DF15 and U266, 1 μM POM, 72 hours) of the same molecule?
Its UHRF1 expression level is “downregulated”.

And the “downregulation of UHRF1 protein by POM under cereblon knockdown” value (UHRF1; [2])?
The value was “rescued”.

And the “UHRF1 mRNA” value (UHRF1 mRNA; H929, MM1.S and U266 cells, indicated doses of POM, 3 days)?
Its value is “dose dependent downregulation”.

And the “time to profound reduction of UHRF1 mRNA level” value (UHRF1 mRNA; [1])?
Its value is “up to 24 hours”.

And the UHRF1 gene expression (UHRF1 mRNA; drug sensitive MM (FIG. 6 title))?
The UHRF1 gene expression was “downregulated”.

What about the “downregulation of UHRF1 mRNA by POM under cereblon knockdown” value (UHRF1 mRNA; [2]) of the same molecule?
The value was “rescue”.
